The text below walks through data of patent publication US20240116946A1 (Gilead Sciences, Inc., priority 2022, published 2024).

The structures appear in SMILES notation. Where two headings read alike, the source gives them in different places. Some results are limits rather than exact numbers.

Assay [1] relates to SARS-CoV-2-NLuc. Briefly: microbe, parasite or virus in culture. Type of assay: cell-based, SARS Coronavirus 2.
Assay [2] addresses recombinant SARS-CoV-2 Main protease (Mpro) (Severe acute respiratory syndrome coronavirus 2 (2019-nCoV) (SARS-CoV-2), UniProt P0DTD1). Briefly: Cov Mpro Biochemical IC50 Assay. The settings on record: read-out: MPro IC50.
[3] abbreviates: Severe acute respiratory syndrome coronavirus, 48 h; read-out: MPro EC50.
[4] abbreviates: recombinant SARS-CoV-2 Mpro 7.5 nM, fluorogenic peptide substrate 40 μM.
The mark [5] stands for this setting: Severe acute respiratory syndrome coronavirus, 48 h, read-out: MPro EC50.
Setting [6] is: recombinant SARS-CoV-2 Mpro, fluorogenic peptide substrate.

As to `CC(C)(C)c1cncc(-n2c(=O)[nH]c3cc(-c4ccccc4Cl)ccc3c2=O)c1` [Example 579], in assay [1] (setting [3]), the EC50 amounted to 42600 nM. In addition, in assay [2] (setting [4]), the IC50 was greater than 50000 nM.

Regarding `O=c1[nH]c2cc(-c3ccccc3Cl)sc2c(=O)n1-c1cncc2ccc(N3CC(F)(F)C3)cc12` [Example 420], in assay [1] (setting [5]), the EC50 came to 50.9 nM. In assay [2] (setting [4]), the IC50 came to 10.8 nM.

As for `COc1cc(-c2cc3c(s2)c(=O)n(-c2cncc4cccc(F)c24)c(=O)n3CCC#N)c(Cl)cc1F` [Example 901, 3-(6-(2-chloro-4-fluoro-5-methoxyphenyl)-3-(5-fluoroisoquinolin-4-yl)-2,4-dioxo-3,4-dihydrothieno[3,2-d]pyrimidin-1(2H)-yl)propanenitrile], the EC50 in assay [1] (setting [5]) stood at 5.16 nM. The IC50 in assay [2] (setting [4]) turned out to be 2.53 nM.

`COc1cc(-c2cc3[nH]c(=O)n(-c4cc(C(F)(F)F)cnn4)c(=O)c3s2)c(Cl)cc1F` [Example 748]: the EC50 in assay [1] (setting [3]) was 86.5 nM. In assay [2] (setting [4]), the IC50 was 50.2 nM.

For `COCCOc1ccc(Cl)c(-c2ccc3c(=O)n(-c4cncc5ccccc45)c(=O)[nH]c3c2)c1` [Example 251], the EC50 in assay [1] (setting [5]) worked out at 150 nM. Besides, the IC50 in assay [2] (setting [6]) came out at 68.2 nM.

For the compound `O=c1[nH]c2cc(-c3c(Cl)cccc3-c3ccnc(C4CC4)c3)ccc2c(=O)n1-c1cncc2ccccc12` [Example 318], the EC50 in assay [1] (setting [5]) is less than 3.42 nM. Moreover, the IC50 in assay [2] (setting [6]) stood at 8.65 nM.

As to `COc1cnc(Cl)c(-c2cc3c(s2)c(=O)n(-c2cncc4nn(C)c(C)c24)c(=O)n3CCC#N)c1` [Example 1086], the EC50 in assay [1] (setting [5]) was determined as 413 nM. The IC50 in assay [2] (setting [4]) is 24.6 nM.

`O=c1[nH]c2cc(-c3ccccc3Cl)sc2c(=O)n1-c1cncc2nccn12` [Example 135]: the concentration for a half-maximal effect (EC50) in assay [1] (setting [5]) was 288 nM. The IC50 in assay [2] (setting [6]) was determined as 51.5 nM.

Consider `COc1cc(-c2cc3c(s2)c(=O)n(-c2cncc4cnn(C5CC5)c24)c(=O)n3CC#N)c(Cl)cc1F` [Example 691], for which, in assay [1] (setting [5]), the 50% effective concentration (EC50) was 2.91 nM. Also, the IC50 in assay [2] (setting [4]) came to 3.07 nM.

Take `COc1ccc(C#N)c(-c2cc3[nH]c(=O)n(-c4cncc5cnn(CC(F)(F)F)c45)c(=O)c3s2)c1` [Example 508]: in assay [1] (setting [5]), the half-maximal effective concentration (EC50) worked out at 205 nM. Besides, the IC50 in assay [2] (setting [4]) amounted to 21.2 nM.

In the case of `COc1cc(-c2cc3[nH]c(=O)n(-c4cncc5ccccc45)c(=O)c3s2)c(Cl)cc1F` [Example 340, 6-(2-chloro-4-fluoro-5-methoxy-phenyl)-3-(4-isoquinolyl)-1H-thieno[3,2-d]pyrimidine-2,4-dione], in assay [1] (setting [5]), the EC50 stood at 5.39 nM. Further, the IC50 in assay [2] (setting [6]) was 5.23 nM.

`COc1c(C)cncc1-n1c(=O)[nH]c2cc(-c3ccccc3Cl)sc2c1=O` [Example 213]: the EC50 in assay [1] (setting [3]) was found to be 31.1 nM. For the same compound, in assay [2] (setting [6]), the IC50 is 16.4 nM.

For the compound `Cc1cncc(-n2c(=O)c3sc(-c4ccccc4Cl)cc3n(CCC#N)c2=O)c1` [Example 984], the EC50 in assay [1] (setting [3]) is 3.69 nM. Moreover, the IC50 in assay [2] (setting [4]) was determined as 3.12 nM.

Consider `COc1ccc(Cl)c(-c2cc3[nH]c(=O)n(-c4cncc5c(OC)cccc45)c(=O)c3s2)c1` [Example 627], for which, in assay [1] (setting [5]), the EC50 came to 4770 nM. For the same compound, the IC50 in assay [2] (setting [4]) is 1970 nM.

As for `Cc1cc2c(=O)n(-c3cncc4ccccc34)c(=O)[nH]c2cc1-c1ccccc1Cl` [Example 81], the EC50 in assay [1] (setting [5]) was 184 nM. For the same compound, the IC50 in assay [2] (setting [6]) was determined as 231 nM.

Turning to `COCCn1c(=O)n(-c2cncc3cnn(C)c23)c(=O)c2sc(-c3cc(OC)c(F)cc3Cl)cc21` [Example 1069], the EC50 in assay [1] (setting [5]) worked out at 130 nM. The IC50 in assay [2] (setting [4]) turned out to be 38.9 nM.

On to `COc1ccc(Cl)c(-c2ccc3c(=O)n(-c4cncc(C)c4OCC(F)(F)F)c(=O)[nH]c3c2)c1` [Example 375], for which, in assay [1] (setting [3]), the EC50 is 632 nM. In addition, in assay [2] (setting [6]), the IC50 was 345 nM.

With `O=c1[nH]c2cc(-c3ccccc3Cl)sc2c(=O)n1-c1cncc2ccoc12` [Example 490], the concentration giving a half-maximal response (EC50) in assay [1] (setting [5]) amounted to 55.8 nM. For the same compound, the IC50 in assay [2] (setting [4]) turned out to be 20.8 nM.

Consider `COc1cc(-c2cc3[nH]c(=O)n(-c4cncc5ccccc45)c(=O)c3cc2OC)c(C#N)cc1F` (single isomer, unassigned) [Example 571, 5-fluoro-2-[3-(4-isoquinolyl)-6-methoxy-2,4-dioxo-1H-quinazolin-7-yl]-4-methoxy-benzonitrile], for which the half-maximal effective concentration (EC50) in assay [1] (read-out: MPro EC50) is 171 nM. The IC50 in assay [2] (setting [4]) was determined as 77.1 nM.

A word on the EC50: it is the concentration that produces a half-maximal response. By IC50 is commonly meant the midpoint of a concentration-inhibition curve.
